Measurements as given in a melting point compilation (Tetko et al.; mined from patent text by program, amines drawn as free bases though some values may be those of a salt).

Row | melting point | Compound
1 | 140 to 141 °C | CN(CC(=O)C(Cc1ccccc1)NC(=O)c1ccccc1)C(=O)OCc1ccccc1 (configuration not stated)
2 | 95 °C | CC(C)c1nn2ccccc2c1C(O)C(C)(C)C (configuration not stated)
3 | 200 to 202 °C | CCCc1nc2c(N)nc3ccccc3c2n1CCCC1(O)CCCCC1
4 | 124 to 125 °C | CCCN1C(=O)COc2ccc(N3C(=O)C(C)=C(C)C3O)cc21 (configuration not stated)
5 | 120 to 128 °C | Cc1noc(NS(=O)(=O)c2ccccc2-c2ccc(-c3ncco3)cc2Cc2ncc(-c3ccccc3)o2)c1C
6 | 139 to 142 °C | CCCCc1oc2ccccc2c1C(=O)NCc1ccc2c(-c3ccc(OC)cc3)c(OCC#N)ccc2c1
7 | 185 °C | CC(=O)Nc1ccc(NC(=O)C=C2CC(C(=O)O)Nc3cc(Cl)cc(Cl)c32)cc1 (racemic)
8 | 150 °C | Cc1ccc(S(=O)(=O)N2[C@@H](c3nnn(C)n3)CC[C@H]2c2ccc(F)cc2)cc1 (racemic)
9 | 153 °C | CC1(O)ON=C(c2ccc(Br)cc2)C1c1ccccc1 (configuration not stated)
10 | 288 °C | C[C@@H](c1ccc(F)cc1)N1CCN(c2cc(Oc3cc(F)cc4[nH]c(=O)c(N)nc34)ncn2)CC1
11 | 305 to 307 °C | Cc1ccc(CNc2cccc(C(=O)O)c2C(=O)O)o1
12 | 48 to 52 °C | CC(C)CN1C(=O)CC(C)(C)CC1=O
13 | 88 to 90 °C | C=CC(=O)OCCCCCCN(C)c1ccc(C=Cc2ccc(S(C)(=O)=O)cc2)cc1
14 | 139 to 142 °C | Cn1c(CC#N)cc(Cl)c1C(=O)c1ccc(Cl)cc1
15 | 269 °C | COC(=O)Cn1c(=O)c(=O)[nH]c2ccccc21
16 | 209 to 215 °C | O=C(O)Cc1cccc([N+](=O)[O-])c1[N+](=O)[O-]
17 | 97 to 101 °C | COc1ccc(CCn2ccn(C3CCc4ccccc4C3)c2=S)cc1OC (configuration not stated)
18 | 335 to 336 °C | O=C(Nc1ccccn1)c1cnc2c(C(F)(F)F)cccc2c1O
19 | 162 to 164 °C | Clc1ccc2oc(-c3ccc(N4CCCCC4)cc3)nc2c1
20 | 215 °C | COC(=O)c1c(C)n(-c2ccccc2)c(C)c(C(=O)OC)c1=O
21 | 93 to 95 °C | ICCCOc1ccc(OCCCI)cc1
22 | 144 to 146 °C | CC1=CC(c2cccc(OC(F)(F)F)c2)C2=C(CCCC2=O)N1 (configuration not stated)

Row | melting point | Compound
23 | 158 to 159 °C | Cc1[nH]c2ccccc2c1C1=C(Cl)C(=O)C=C(Cl)C1=O
24 | > 300 °C | Cc1ccc2sc3ncc(C(=O)Nc4nnn[nH]4)c(=O)n3c2c1
25 | 173 to 174 °C | CC(=O)OC1OCC[C@@H]1NC(=O)[C@@H](NC(=O)OCc1ccccc1)C(C)C (some centres not stated)
26 | 156 to 158 °C | O=C(NNc1ccccc1Cl)c1c(F)cccc1Cl
27 | 79 °C | CC(C(=O)NCC1CCC1)(c1ccccc1)c1ccccc1
28 | 128 to 130 °C | Cn1c(-c2ccccc2F)nnc1S(C)(=O)=O
29 | 138 to 140 °C | COc1cc(N2CCN(Cc3ccccc3)CC2)c2ncccc2c1Cl
30 | 153 °C | CNC(=O)C(C)(C)N=NC(C)(C)C(=O)NC
31 | 149 to 150 °C | Cc1c(SCCCN2CCOCC2)ccnc1CSc1nc2ccccc2[nH]1
32 | 208 to 209 °C | Cc1cc(-c2nnc3c4ccccc4c(OCc4cn(C)cn4)nn23)no1
33 | 120 to 121 °C | CCOC(=O)C(C)Cc1ccnc(-c2nc(=O)c3ccccc3s2)c1 (configuration not stated)
34 | 202 to 203 °C | N#CNC=Nc1ccc(-c2ncc[nH]2)cc1
35 | 140 to 141 °C | CC(C)(C)OC(=O)NC(Cc1ccccc1)C(O)CNCC(O)C(Cc1ccccc1)NC(=O)SC(C)(C)C (configuration not stated)
36 | 80 to 82 °C | CCOC(=O)C(C)Sc1nc(-c2cc(C(C)(C)C)c(O)c(C(C)(C)C)c2)c[nH]1 (configuration not stated)
37 | 226 to 229 °C | CCNCC1CN(c2c(F)cc3c(=O)c(C(=O)O)cn(-c4ccc(F)cc4F)c3c2F)CCO1 (configuration not stated)
38 | 201 to 203 °C | COc1cc2c(cc1Br)-c1c(-c3cccs3)c3c(n1CC2)C(=O)N(C(C)C)CCNC3
39 | 155 to 159 °C | Cc1ccc2oc(=O)c(C(=O)Oc3cc(F)ccc3F)cc2c1
40 | 263 to 266 °C | CN1C(=O)CN(C(=O)N2CC(=O)N(C)c3ccc(Cl)cc3C2c2ccccc2)C(c2ccccc2)c2cc(Cl)ccc21 (configuration not stated)
41 | 155 °C | CC(C)(C)OC(=O)n1c2ccccc2c(=O)n1Cc1cccc(N)c1
42 | 145 to 146 °C | O=Cc1ccc(-c2noc(-c3ccc(C(F)(F)F)cc3)n2)cc1
43 | 270 to 271 °C | O=c1[nH]cnc2c1cnn2CC(O)c1ccccc1 (configuration not stated)
44 | 155 to 156 °C | O=[N+]([O-])c1ccc(-c2nc(CO)no2)cc1

Row | melting point | Compound
45 | 207 to 209 °C | Cc1ccc(-c2nc(N3CCN(C)CC3)c3c(C)c(C#N)sc3n2)cc1
46 | 132 to 134 °C | CC#CCn1nnc2cc3c(=O)n(C(C)Cn4ncnn4)nnc3cc2c1=O (configuration not stated)
47 | 182 to 184 °C | Cc1cc(/C=C/C(=O)O)c(C)n1-c1ccc(C(=O)N(C)C)cc1
48 | 45 °C | CC(C)(C)OP(=O)(Cc1ccc(Br)cc1)OC(C)(C)C
49 | 185 °C | CC(c1ccc2c(c1)CCC(=O)N2)n1ccnc1 (configuration not stated)
50 | 186 to 187 °C | CCOCc1nc2c(N)nc3cc(-c4cccc(CO)c4)cnc3c2n1CC(C)(C)O
51 | 128 to 131 °C | Cc1c(C(=O)O)oc2ccc(OCCNC[C@@H](O)c3csc(C(F)(F)F)n3)cc12
52 | 76 to 78 °C | O=C(NCCO[N+](=O)[O-])c1cnc(C(F)(F)F)s1
53 | 124 to 125 °C | O=C(O)CCCCCCCNC(=O)c1ccccc1NC(=O)c1ccccc1O
54 | 106 °C | CC(C)c1ccc(-n2cc(C#N)cc2N)c(Br)c1
55 | 115 to 116 °C | CC1(C)OC(c2ccc(S(C)(=O)=O)cc2)=C(c2cccc(C(F)(F)F)c2)C1=O
56 | 153 to 155 °C | O=C(O)c1ccccc1C(=O)Nc1ccc(C(=O)N2CCCC(O)c3cc(Cl)ccc32)cn1 (configuration not stated)
57 | 228 to 229 °C | NC(=O)N1C(=O)C(C(=O)c2ccc(Br)s2)c2cc(Cl)ccc21 (configuration not stated)
58 | 162 to 164 °C | O=C(CCc1cnoc1-c1ccccc1)Nc1ccc(CP(=O)(O)O)cc1
59 | 39 °C | CC(C)N(C(=O)CO)c1ccccc1
60 | 100 °C | Cn1c(=O)c2c(ncn2CC(O)CN2CCN(C(=O)c3ccco3)CC2)n(C)c1=O (configuration not stated)
61 | 188 °C | CS(=O)(=O)c1ccc(-c2nn(Cc3ccccc3)c(=O)cc2-c2ccc(F)cc2)cc1
62 | 260 to 263 °C | COc1ccc(-c2nc3cccnc3n2CC(=O)O)cc1
63 | 105 to 106 °C | C[C@H]1Oc2ccc(Br)cc2C(=O)N2CCCC[C@@H]12 (racemic)
64 | 127 to 128 °C | CCCCNC(=O)c1nc2cnn(CC)c2nc1-c1ccccc1
65 | 127 to 129 °C | CCCCC1C(C(=O)/C=C/c2ccc(OC)cc2)C(=O)CC(c2ccc(OC)cc2)C1[N+](=O)[O-] (configuration not stated)
66 | 101 to 102 °C | COC(=O)C1Sc2cc(OCc3ccccc3)ccc2OCC1=O (configuration not stated)

Row | Compound | melting point
67 | CN1CN(c2ccccc2)C2(CCN(CCCn3c(=O)[nH]c4ccccc43)CC2)C1=O | 186 °C
68 | CCCNc1ccc(C#CCCN2CC=C(c3ccccc3)CC2)nc1 | 138 to 139 °C
69 | O=C(O)c1cn(Cc2c(F)cccc2Cl)nn1 | 274 to 276 °C
70 | CN1Cc2c(C(=O)NN)ncn2-c2cccc(Cl)c2C1=O | 287 °C
71 | COC(=O)Cn1nnc(N)n1 | 127 to 128 °C
72 | Cc1c(C2=CCC(c3ccccc3)(N(C)C)CC2)[nH]c2ccccc12 (configuration not stated) | 168 to 180 °C
